The values that follow are results of earlier work, collected in PMC11579209, “Population pharmacokinetics and exposure–response relationships of maribavir in transplant recipients with cytomegalovirus infection” (Journal of Pharmacokinetics and Pharmacodynamics, 2024).

Details of series [1]: method as in PMID 12654667, doi:10.1016/j.bbmt.2018.12.600. The settings on record: metabolite of maribavir; cited from earlier work.
The test system of another series is CMV. Also on record: method as in PMID 34674258. The settings on record: through Week 24 or Week 14; cited from earlier work.

`Nc1nc2cc(Cl)c(Cl)cc2n1[C@H]1O[C@@H](CO)[C@H](O)[C@@H]1O` [VP44469]: the “Pharmacological activity of metabolite” value in series [1] is “pharmacologically inactive”.

Turning to `COc1cccc(N2CCN(C3=Nc4c(F)cccc4[C@H](CC(=O)O)N3c3cc(C(F)(F)F)ccc3OC)CC2)c1` [letermovir], the “Exposure dependency of clinically significant CMV infection (CS-CMVi)” value in the series with CMV was “no significant exposure dependencies”.
